pIC50, pKi: −log10 of the molar value. Where a SMILES comes first, the peptide text is derived from it. Bridges are numbered along the chain shown (N, C = ends). Roman numbers before positions name the chains, in order. [ ]: non-standard residue; d: D form. ξ: configuration not given here. ξK = NCCCCC(N)C(=O)O; Ava = NCCCCC(=O)O
Biological target: T1, EPOR (erythropoietin receptor), human recombinant, NSO cells (Homo sapiens, UniProt P19235)
T1 construct: host or cells: NSO cells
T1 sequence (P19235 25-250 limits assumed): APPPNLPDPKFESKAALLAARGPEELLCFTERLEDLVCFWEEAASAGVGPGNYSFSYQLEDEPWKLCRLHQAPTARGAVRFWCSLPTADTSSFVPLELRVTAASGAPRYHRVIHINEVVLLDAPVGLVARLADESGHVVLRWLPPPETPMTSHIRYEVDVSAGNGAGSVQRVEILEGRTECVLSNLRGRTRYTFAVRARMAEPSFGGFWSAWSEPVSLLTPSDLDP
Assay: EPOR radioligand binding assay ([125I] Erythropoietin competition)
Method: IC50 values were determined by a non-linear, least squares regression analysis using MATHIQ™ (computer software for integrating mathematical functions into new or existing software). […] Where presented, the Hill coefficient (nH), defining the slope of the competitive binding curve, was calculated using MATHIQ™.

[1] = Example 1, mimetics varied in N-end, loop and mid sequences

Row | Structure (SMILES) | pKi [1] | pIC50 (Example 4, fourth table) | pIC50 (Example 3) | pKi (Example 3, Cheng-Prusoff) | pIC50 (Example 4, fifth table) | further results
1 | CSCC[C@@H]1NC(=O)[C@H](CCCNC(=N)N)NC(=O)C(NC(=O)[C@H](CC(C)C)NC(=O)[C@H](Cc2ccc(O)cc2)NC(=O)[C@H](CC(N)=O)NC(C)=O)CCOCC(C(=O)N[C@@H](CCCCN)C(=O)N2CCC[C@H]2C(=O)NCCCCC(=O)NCCCCC(NC(=O)[C@@H]2CCCN2C(=O)[C@H](CCCCN)NC(=O)C2COCCC(NC(=O)[C@H](CC(C)C)NC(=O)[C@H](Cc3ccc(O)cc3)NC(=O)[C@H](CC(N)=O)NC(C)=O)C(=O)N[C@@H](CCCNC(=N)N)C(=O)N[C@@H](CCSC)C(=O)N[C@@H](CCc3ccccc3)C(=O)N[C@@H](Cc3c[nH]c4ccccc34)C(=O)N[C@@H](C(C)C)C(=O)N2)C(N)=O)NC(=O)[C@H](C(C)C)NC(=O)[C@H](Cc2c[nH]c3ccccc23)NC(=O)[C@H](CCc2ccccc2)NC1=O (stereo partly shown) [AC-0005-023] | 7.77 | 7.46 | – | – | – | –
2 | CSCC[C@@H]1NC(=O)[C@H](CCCNC(=N)N)NC(=O)C(NC(=O)[C@H](CC(C)C)NC(=O)[C@H](Cc2ccc(O)cc2)NC(=O)[C@H](CC(N)=O)NC(C)=O)CCOCC(C(=O)N[C@@H](CCCCN)C(=O)N2CCC[C@H]2C(=O)NCCCCC(=O)NCCCCC(NC(=O)[C@@H]2CCCN2C(=O)[C@H](CCCCN)NC(=O)C2COCCC(NC(=O)[C@H](CC(C)C)NC(=O)[C@H](Cc3ccc(O)cc3)NC(=O)[C@H](CC(N)=O)NC(C)=O)C(=O)N[C@@H](CCCNC(=N)N)C(=O)N[C@@H](CCSC)C(=O)N[C@@H](Cc3ccccc3)C(=O)N[C@@H](Cc3c[nH]c4ccccc34)C(=O)N[C@@H](C(C)C)C(=O)N2)C(N)=O)NC(=O)[C@H](C(C)C)NC(=O)[C@H](Cc2c[nH]c3ccccc23)NC(=O)[C@H](Cc2ccccc2)NC1=O (stereo partly shown) [AC-0005-022] | 7.77 | 7.44 | – | – | – | –
3 | CC[C@H](C)[C@@H]1NC(=O)[C@@H]2CCCN2C(=O)CNC(=O)[C@H](CCSC)NC(=O)[C@H](CCCNC(=N)N)NC(=O)[C@@H](NC(=O)[C@H](CC(C)C)NC(=O)[C@H](Cc2ccc(O)cc2)NC(=O)[C@H](CC(N)=O)NC(C)=O)CSSC[C@@H](C(=O)N[C@@H](CCCCN)C(=O)N2CCC[C@H]2C(=O)NCCCCC(=O)NCCCCC(NC(=O)[C@@H]2CCCN2C(=O)[C@H](CCCCN)NC(=O)[C@@H]2CSSC[C@H](NC(=O)[C@H](CC(C)C)NC(=O)[C@H](Cc3ccc(O)cc3)NC(=O)[C@H](CC(N)=O)NC(C)=O)C(=O)N[C@@H](CCCNC(=N)N)C(=O)N[C@@H](CCSC)C(=O)NCC(=O)N3CCC[C@H]3C(=O)N[C@@H]([C@@H](C)CC)C(=O)N[C@@H]([C@@H](C)O)C(=O)N[C@@H](Cc3c[nH]c4ccccc34)C(=O)N[C@@H](C(C)C)C(=O)N2)C(N)=O)NC(=O)[C@H](C(C)C)NC(=O)[C@H](Cc2c[nH]c3ccccc23)NC(=O)[C@H]([C@@H](C)O)NC1=O (stereo partly shown) [AC-0005-003] (I: Ac-NYLCRMGPITWVCKP[ξK]-NH2 / II: Ac-NYLCRMGPITWVCKP[Ava]; disulfide I:4-I:13, II:4-II:13; amide I:16-II:C) | 7.32 | – | – | – | – | –
4 | CSCC[C@@H]1NC(=O)[C@H](CCCNC(=N)N)NC(=O)C(NC(=O)[C@H](CC(C)C)NC(=O)[C@H](Cc2ccc(O)cc2)NC(=O)[C@H](CC(N)=O)NC(C)=O)CCOCC(C(=O)N[C@@H](CCCCN)C(=O)N2CCC[C@H]2C(=O)NCCCCC(=O)NCCCCC(NC(=O)[C@@H]2CCCN2C(=O)[C@H](CCCCN)NC(=O)C2COCCC(NC(=O)[C@H](CC(C)C)NC(=O)[C@H](Cc3ccc(O)cc3)NC(=O)[C@H](CC(N)=O)NC(C)=O)C(=O)N[C@@H](CCCNC(=N)N)C(=O)N[C@@H](CCSC)C(=O)N3CCC[C@H]3C(=O)N[C@@H](Cc3c[nH]c4ccccc34)C(=O)N[C@@H](C(C)C)C(=O)N2)C(N)=O)NC(=O)[C@H](C(C)C)NC(=O)[C@H](Cc2c[nH]c3ccccc23)NC(=O)[C@@H]2CCCN2C1=O (stereo partly shown) [AC-0005-026] | 8.23 | 7.70 | 7.87 | 8.19 | 7.91 | pKi (Example 2, mimetics varied in loop, mid and C-end): 8.37; pIC50 (Example 4, sixth table): 8.05; pKi (Example 4, sixth table): 8.37
5 | CSCC[C@@H]1NC(=O)[C@H](Cc2c[nH]cn2)NC(=O)C(NC(=O)[C@H](CC(C)C)NC(=O)[C@H](Cc2ccc(O)cc2)NC(=O)[C@H](CC(N)=O)NC(C)=O)CCOCC(C(=O)N[C@@H](CCCCNC(=N)N)C(=O)N2CCC[C@H]2C(=O)NCCCCC(=O)NCCCCC(NC(=O)[C@@H]2CCCN2C(=O)[C@H](CCCCNC(=N)N)NC(=O)C2COCCC(NC(=O)[C@H](CC(C)C)NC(=O)[C@H](Cc3ccc(O)cc3)NC(=O)[C@H](CC(N)=O)NC(C)=O)C(=O)N[C@@H](Cc3c[nH]cn3)C(=O)N[C@@H](CCSC)C(=O)N3CCC[C@H]3C(=O)N[C@@H](Cc3ccc4ccccc4c3)C(=O)N[C@@H](C(C)C)C(=O)N2)C(N)=O)NC(=O)[C@H](C(C)C)NC(=O)[C@H](Cc2ccc3ccccc3c2)NC(=O)[C@@H]2CCCN2C1=O (stereo partly shown) [AC-0005-056] | 7.95 | – | 7.63 | 7.95 | 7.62 | –
6 | CCN[C@@H](CC(N)=O)C(=O)N[C@@H](Cc1ccc(O)cc1)C(=O)N[C@@H](CC(C)C)C(=O)NC1CCOCC(C(=O)N[C@@H](CCCCNC(=N)N)C(=O)N2CCC[C@H]2C(=O)NC(CCCC(=O)NCCCCC(NC(=O)[C@@H]2CCCN2C(=O)[C@H](CCCCNC(=N)N)NC(=O)C2COCCC(NC(=O)[C@H](CC(C)C)NC(=O)[C@H](Cc3ccc(O)cc3)NC(=O)[C@H](CC(N)=O)NC(C)=O)C(=O)N[C@@H](CCCNC(=N)N)C(=O)N[C@@H](CCSC)C(=O)N3CCC[C@H]3C(=O)N[C@@H](Cc3ccc4ccccc4c3)C(=O)N[C@@H](C(C)C)C(=O)N2)C(=O)N[C@@H](CCCNC(=N)N)C(N)=O)C(=O)N[C@@H](CCCNC(=N)N)C(N)=O)NC(=O)[C@H](C(C)C)NC(=O)[C@H](Cc2ccc3ccccc3c2)NC(=O)[C@@H]2CCCN2C(=O)[C@H](CCSC)NC(=O)[C@H](CCCNC(=N)N)NC1=O (stereo partly shown) [AC-0005-060] | – | – | – | – | – | Ki (AC-0005-002)/Ki (Example 4, sixth table, Ki relative to that of AC-0005-002): 195; Ki/Ki(EPO) (Example 4, sixth table, Ki relative to that of EPO): 330
7 | CSCC[C@@H]1NC(=O)[C@H](CCCNC(=N)N)NC(=O)C(NC(=O)[C@H](CC(C)C)NC(=O)[C@H](Cc2ccc(O)cc2)NC(=O)[C@H](CC(N)=O)NC(C)=O)CCOCC(C(=O)N[C@@H](CCCCNC(=N)N)C(=O)N2CCC[C@H]2C(=O)NCCCCC(=O)NCCCCC(NC(=O)[C@@H]2CCCN2C(=O)[C@H](CCCCNC(=N)N)NC(=O)C2COCCC(NC(=O)[C@H](CC(C)C)NC(=O)[C@H](Cc3ccc(O)cc3)NC(=O)[C@H](CC(N)=O)NC(C)=O)C(=O)N[C@@H](CCCNC(=N)N)C(=O)N[C@@H](CCSC)C(=O)NCC(=O)N[C@@H](Cc3c[nH]c4ccccc34)C(=O)N[C@@H](C(C)C)C(=O)N2)C(N)=O)NC(=O)[C@H](C(C)C)NC(=O)[C@H](Cc2c[nH]c3ccccc23)NC(=O)CNC1=O (stereo partly shown) [AC-0005-021] | 7.92 | 7.60 | – | – | – | –
8 | CSCC[C@@H]1NC(=O)[C@H](CCCNC(=N)N)NC(=O)C(NC(=O)[C@H](CC(C)C)NC(=O)[C@H](Cc2ccc(O)cc2)NC(=O)[C@H](CC(N)=O)NC(C)=O)CCOCC(C(=O)N[C@@H](CCCCN)C(=O)N2CCC[C@H]2C(=O)NCCCCC(=O)NCCCCC(NC(=O)[C@@H]2CCCN2C(=O)[C@H](CCCCN)NC(=O)C2COCCC(NC(=O)[C@H](CC(C)C)NC(=O)[C@H](Cc3ccc(O)cc3)NC(=O)[C@H](CC(N)=O)NC(C)=O)C(=O)N[C@@H](CCCNC(=N)N)C(=O)N[C@@H](CCSC)C(=O)NCCC(=O)N[C@@H](Cc3c[nH]c4ccccc34)C(=O)N[C@@H](C(C)C)C(=O)N2)C(N)=O)NC(=O)[C@H](C(C)C)NC(=O)[C@H](Cc2c[nH]c3ccccc23)NC(=O)CCNC1=O (stereo partly shown) [AC-0005-019] | 7.57 | – | – | – | – | pIC50 (Example 4, second table): 7.24
9 | CSCC[C@@H]1NC(=O)[C@H](CCCNC(=N)N)NC(=O)C(NC(=O)[C@H](CC(C)C)NC(=O)[C@H](Cc2ccc(O)cc2)NC(C)=O)CCOCC(C(=O)N[C@@H](CCCCNC(=N)N)C(=O)N2CCC[C@H]2C(=O)NCCCCC(=O)NCCCCC(NC(=O)[C@@H]2CCCN2C(=O)[C@H](CCCCNC(=N)N)NC(=O)C2COCCC(NC(=O)[C@H](CC(C)C)NC(=O)[C@H](Cc3ccc(O)cc3)NC(C)=O)C(=O)N[C@@H](CCCNC(=N)N)C(=O)N[C@@H](CCSC)C(=O)N3CCC[C@H]3C(=O)N[C@@H](Cc3c[nH]c4ccccc34)C(=O)N[C@@H](C(C)C)C(=O)N2)C(N)=O)NC(=O)[C@H](C(C)C)NC(=O)[C@H](Cc2c[nH]c3ccccc23)NC(=O)[C@@H]2CCCN2C1=O (stereo partly shown) [AC-0005-052] | 7.94 | – | 7.61 | 7.94 | 7.62 | –
10 | CSCC[C@@H]1NC(=O)[C@H](CCCNC(=N)N)NC(=O)C(NC(=O)[C@H](CC(C)C)NC(=O)[C@H](Cc2ccc(O)cc2)NC(=O)[C@H](CC(N)=O)NC(C)=O)CCOCC(C(=O)N[C@@H](CCCCNC(=N)N)C(=O)N2CCC[C@H]2C(=O)NCCCCC(=O)NCCCCC(NC(=O)[C@@H]2CCCN2C(=O)[C@H](CCCCNC(=N)N)NC(=O)C2COCCC(NC(=O)[C@H](CC(C)C)NC(=O)[C@H](Cc3ccc(O)cc3)NC(=O)[C@H](CC(N)=O)NC(C)=O)C(=O)N[C@@H](CCCNC(=N)N)C(=O)N[C@@H](CCSC)C(=O)N3CCC[C@H]3C(=O)N[C@@H](Cc3c[nH]c4ccccc34)C(=O)N[C@@H](C(C)C)C(=O)N2)C(N)=O)NC(=O)[C@H](C(C)C)NC(=O)[C@H](Cc2c[nH]c3ccccc23)NC(=O)[C@@H]2CCCN2C1=O (stereo partly shown) [AC-0005-051] | 8.34 | – | 8.00 | 8.32 | 8.02 | –
